Key:
Heliothis virescens [1] = assay: Ovicidal effect on Heliothis virescens; format: in vivo; settings: 400 ppm in acetone/water, eggs on filter paper immersed, after 6 days
Experimental: Eggs of Heliothis virescens deposited on filter paper are immersed briefly in a test solution comprising 400 ppm of the active ingredient to be tested in acetone/water. After the test solution has dried, the eggs are incubated in Petri dishes. After 6 days, the percentage hatching rate of the eggs is compared with that for untreated controls (% reduction in hatching rate).

Heliothis virescens [2] = assay: Effect on Heliothis virescens caterpillars; format: in vivo; settings: 400 ppm spray on soya plants, first-instar larvae, six days
Experimental: (§1) Young soya plants are sprayed with an aqueous emulsion spray mixture containing 400 ppm of active ingredient. After drying of the spray deposit, the soya plants are colonised with 10 first-instar larvae of Heliothis virescens and placed in a plastic container. Six days later they are evaluated. The percentage reduction of the population and percentage reduction in feeding damage (% response) is determined by comparing the number of dead larvae and the extent of feeding damage on the treated plants with those on the untreated plants.

Plutella xylostella = assay: Effect against Plutella xylostella caterpillars; format: in vivo; settings: 400 ppm spray on cabbage plants, third-instar caterpillars, three days
Experimental: as §1, with “cabbage” for “soya”, “After” for “After drying of”, “coating has dried on,” for “deposit,”, “third-instar caterpillars” for “first-instar larvae”, “Plutella xylostella” for “Heliothis virescens”, “Three” for “Six”

Panonychus ulmi = assay: Effect against Panonychus ulmi (resistant to organophosphates und carbaryl); format: in vivo; settings: 400 ppm spray on apple seedlings, after 14 days
Experimental: Apple seedlings are colonised with adult females of Panonychus ulmi. After seven days, the infected plants are sprayed with an aqueous emulsion spray mixture containing 400 ppm of the test compound until they are dripping wet, and cultivated in the greenhouse. After 14 days, they are evaluated. The percentage reduction of the population (% response) is determined by comparing the number of dead spider mites on the treated plants with those on the untreated plants.

Anthonomus grandis = assay: Effect against Anthonomus grandis; format: in vivo; settings: 400 ppm spray on cotton plants, adults, three days
Experimental: Young cotton plants are sprayed with an aqueous emulsion spray mixture containing 400 ppm of active ingredient. After the spray coating has dried on, the cotton plants are colonised with 10 adult Anthonomus grandis and placed in a plastic container. Three days later they are evaluated. The percentage reduction of the population and of the feeding damage (% response) is determined by comparing the total number of dead beetles and the feeding damage on the treated plants with those on the untreated plants.

Boophilus microplus = assay: In vitro effect on Boophilus microplus; settings: 100 to 0.32 ppm; BIARRA and ULAM strain identical
Experimental: Four test series each of 10 engorged female adults of Boophilus microplus are stuck to a plastic plate and covered for 1 hour with a wad of cottonwool soaked with an aqueous suspension or emulsion of the test substance. The test is carried out with concentrations of 100, 32, 10, 3.2, 1.0 and 0.32 ppm. The wad of cottonwool is then removed, and the ticks are incubated for 28 days for the eggs to be laid. The effect on Boophilus microplus is assessed according to the following 5 criteria:
1. Number of dead females (immobile with black discoloration) before ovipositon;
2. Number of ticks surviving for several days, but no eggs laid;
3. Number of cases in which eggs are laid, but nothing is hatched;
This test is carried out with both the BIARRA and the ULAM strain, and the results in both cases are identical.

Dermanyssus gallinae = assay: Comparative in vitro effect on Dermanyssus gallinae
Experimental: 15 fed adult female mites of the genus Dermanyssus gallinae fixed on a plastic adhesive film are brought into contact with 50 μl of an aqueous suspension or emulsion of the test substance. The test is carried out with concentrations of 32, 10, 3.2, 1.0, 0.32 to 0.1 ppm. After drying, the film is stuck onto a glass disc. This creates a kind of air bubble around each mite, the lower surface of which is formed by the glass disc and the upper surface by a bulging of the adhesive film. This bubble contains sufficient air for the mite to avoid suffocating. After 5 days, the effect of the test substance is evaluated with the aid of a stereo-microscope by assessing the effect on mortality, egg deposition, egg quality, hatching rate, pupation rate, and development of protonymphs according to the following 4 criteria:
1. if 9 to 10 mites are dead, this indicates a lethal effect (M);
3. if 2 or more mites survive and produce eggs, but no larvae hatch from these eggs and no protonymphs develop, this indicates a development-inhibiting effect (H);
4. if 2 or more mites survive and lay the usual number of normal eggs, from which larvae hatch and develop into protonymphs, this indicates no activity.

[3] = tested on: Musca domestica of an OP-resistant strain; assay: Effect against Musca domestica; format: in vivo; settings: 250 ppm in sugar cube, 25° C., after 24 hours, read-out: mortality rate (response)
Experimental: A sugar cube is treated with a solution of the test substance in such a way that the concentration of test substance in the sugar, after drying over night, is 250 ppm. The cube treated in this way is placed on an aluminium dish with wet cottonwool and 10 adult Musca domestica of an OP-resistant strain. It is covered with a beaker and incubated at 25° C. The mortality rate is determined after 24 hours.

Compound: Fc1cccc(F)c1C1=NC(c2ccc(-c3ccc(C(F)(F)F)cc3)cc2)CO1 (single isomer, unassigned) [1.1, 2-(2,6-difluoro-phenyl)-4-(4′-trifluoromethylbiphenyl-4-yl)-4,5-dihydro-oxazole]
- % reduction in hatching rate (response) (Heliothis virescens [1]): more than 80%
- percentage reduction of the population and percentage reduction in feeding damage (% response) (Heliothis virescens [2]): more than 80%
- percentage reduction of the population and percentage reduction in feeding damage (% response) (Plutella xylostella): more than 80%
- percentage reduction of the population (% response) (Panonychus ulmi): more than 80%
- percentage reduction of the population and of the feeding damage (% response) (Anthonomus grandis): more than 80%
- activity on Boophilus microplus (in words) (Boophilus microplus): most active test substance
- concentration that completely inhibits the development of protonymphs (Dermanyssus gallinae; after 5 days): ≤ 0.0064 ppm
- Type of activity (Dermanyssus gallinae; at the EC100 of the same table line, listed as Enantiomer A): 1
- EC100 (minimum dosage to reach 100% mortality) (Dermanyssus gallinae; fed adult female mites, evaluated after 5 days, listed as Enantiomer A): 0.0064 ppm
- activity relative to enantiomer B (Dermanyssus gallinae; ratio of EC100): 3000-5000 times
- activity relative to the racemate (Dermanyssus gallinae; ratio of EC100): more than 30 times
- mortality at 250 ppm [3]: > 80%

Reference: patent US20020137781A1, “Preparation and use of enantiomer-pure 2,4-disubstituted oxazolines” (priority 1999, published 2002)
